# Source: US20250214973A1, “1,4,5-TRISUBSTITUTED-1,2,3-TRIAZOLES AND USES THEREOF” (UNIVERSITY OF PUERTO RICO, priority 2022, published 2025)
# Key:
# MCF-7 = assay: Initial screening, SRB assay GI50; format: cell-based; conditions: Homo sapiens, MCF7, 48 hrs
# Protocol: (§1) For initial screening, the GIso of compounds 4a-4h in the cell lines MDA-MB-231, MDA-MB-435 and MCF-7 was determined via the SRB-assay for 48 hrs as follows:
# (§2) A stock solution of compounds was prepared at 50 mM in 100% DMSO. For cells preparation, a flask of 75 cm^2 or 25 cm^2 were used for 2.6×10^5 cells/mL or 1.44×10^5 cells/mL, respectively, with an 80-90% of confluence. Cells were washed with PBS and trypsinized. The concentration of cells was determined using a 1:2 dilutions with Trypan Blue and a hemocytometer. After cell count, the concentration was adjusted to have a 7.0-10.0×10^4 cells/mL. Approximately 100 μL of cells suspension, compounds, control positive and control negative were added in triplicates to a 96 well plate. Positive control used was doxorubicin, and the negative control was DMSO 0.1%. All compounds (4a-h) at 50, 25, 12.5, 6.3, and 1.6 μM were incubated with cells at 37° C. for 48 hrs. For fixation, cold TCA 50% was used and incubated at 4° C. for 1 h. Wells were washed and dried prior to tincture with 100 μL of SRB 0.4%. To remove excess of SRB, acetic acid was used. For analysis, TRIS-BASE Solution (pH=10.5) was used and shaken prior to reading using an ELISA reader at 540 nm and the software SoftMax Pro 4.8. For each compound, 50% growth inhibition (GI50) was calculated from Sigmoidal dose-response curves (variable-slope) that were generated with data obtained from experiments carried out in triplicates (GI50 values were generated with GraphPad Prism V. 6.02, GraphPad Software, Inc.).
# MDA-MB-435 [1] = assay: Initial screening, SRB assay GI50; format: cell-based; conditions: Homo sapiens, 48 hrs, read-out: MDA-MB435 GI50
# Protocol: as §1, §2
# MDA-MB-231 [2] = assay: Initial screening, SRB assay GI50; format: cell-based; conditions: Homo sapiens, 48 hrs
# Protocol: as §1, §2
# MDA-MB-435 [3] = assay: Cell viability assay (MTT); format: cell-based, human; conditions: for GI50: MTT, 72 hrs, read-out: GI50 MDA-MB-435; for GI50 / effect on viability of MDA-MB-435: 0-1000 nM; for effect on viability of MDA-MB-435: 72 h
# Protocol: Cells plated at equal density were treated at 500 nM of compounds. After 72 hours, cell viability was measured by a MTT assay. n=3; * p<0.05, ** p<0.01, *** p<0.001.
# (§3) Cells plated at equal density were treated at 250 nM of 4c at 250 nM.
# (§4) Data from 3 biologic replicates each with 2 technical replicates. Four parameter dose-response curves generated using GraphPad Prism are shown.
# […]. GI50 was calculated using Graph pad Prism.
# (§5) […] Using CellTiter 96 Non-Radioactive Cell Proliferation Assay (Promega, Corp.) according to manufactures' instructions, formazan was used as an indicator of viable cells at an absorbance 570 nm in a Tecan Microplate Reader M100. Data was calculated as fold change from vehicle and fitted using the 4′parameter logic nonlinear regression model in GraphPad Prism software. (n=3 biologic replicates: with 3 technical replicates each).
# A range of compounds were tested by MTT assays for cell viability in MDA-MB-231 triple negative breast cancer (TNBC) cells and MDA-MB-435 HER2++ cancer cells. […].
# MDA-MB-231 [4] = assay: Initial screening, inhibition of migration (wound gap); format: cell-based; conditions: Homo sapiens; for inhibition at 0.5 µM: read-out: Inh. of migration (converted)
# Protocol: In addition, the inhibition of migration of MDA-MB-231 was determined via the following procedure:
# Prior to assays, cells were grown until 80-90% confluence was observed. We used a 75 cm^2 flask for 2.6×10^5 cells/mL in 10 mL and for a 25 cm^2 flask 1.44×10^5 cells/mL in 5 mL. The cells were washed with PBS to remove all traces of FBS. We added 2 mL for a 25 cm^2 flasks or 4 mL for a 75 cm^2 flasks trypsin, and incubated 5-10 min at 37° C. At the end of the incubation time, cells were re-suspended and counted with hemocytometer using 1:2 dilutions with Trypan blue. Subsequently, cell viability was calculated. In a 12 well tissue culture plate, we used the plastic pattern to draw a fine space with a fine marker on the bottom of the plate. Cells were seeded at 1.5-2.2×10^5 cells/mL in 1 mL and incubated for 24 h. Cells were then rinsed with PBS and incubated in starving media (0.5% FBS) overnight. All controls and drugs were tested in triplicate. The negative control for each drug was prepared according to the drug's DMSO concentration. […] The wound was made using a sterile pipette tip of 200 μL. Cells were then rinsed very gently with media without FBS and media with negative controls was added. After a 24 h incubation, the gap distance was evaluated using the software Lumera Infinity Analyze 6.4.0. Pictures were taken at 0, 8, 12 and 24 h using a 10× objective in an Inverted Laboratory Microscope Leica DM IL LED, and an Infinity1-3 3.1 Megapixel USB 2.0 camera CMOS. The percentage of migration was calculated using the following formula: […]
# MDA-MB-231 [5] = assay: Cell viability assay (MTT); format: cell-based; conditions: Homo sapiens; for inhibition at […]: MDA-MB-231, 250 nM for 48 hours (footnote a; title says 500 nM), read-out: % growth inhibition MDA-MB-231
# Protocol: Cells plated at equal density were treated at 500 nM of compounds. […]
# as §3, §4
# Cell viability relative to vehicle (100%) is shown.
# as §5
# A range of compounds were tested by MTT assays for cell viability in MDA-MB-231 triple negative breast cancer (TNBC) cells and MDA-MB-435 HER2++ cancer cells.
# Rac = Rac activation pulldown (GST-CRIB of PAK) in MDA-MB-435 cells; format: cell-based, human; conditions: 24 hours
# Excerpt: (§6) Cells were lysed and equal amounts of proteins were subjected to pull-down assays using a GST-fusion protein of the Cdc42-rac interactive binding (CRIB) domain of P21-activated kinase (PAK). The pulldowns of Rac.GTP and whole cell lysates were western blotted with a pan Rac1/2/3 antibody.
# as §6
# Vav2 binding to Rac1 = molecular target: T1, Vav2 binding to Rac1 (Homo sapiens, UniProt P63000, G15A); assay: Rac1 GEF assay, Rac1(G15A) pulldown; conditions: 8 μM, MDA-MB-231 lysates
# T1 construct: purchased Cell Biolabs, San Diego; CA; host or cells: Vav2 from MDA-MB-231 cell lysate
# Protocol: GST-Rac1 (G15A) beads were pre-incubated with vehicle (0.1% DMSO), or 8 μM EHop-016, or 250 nM Compound 4c for 1 hour followed by incubation with MDA-MB-231 cell lysates (equal total protein). Representative Western blot for Rac1(G15A) or pulldowns immunostained for Vav2 is shown (n=3).
# MDA-MB-231 cells in culture medium were lysed in 1% Triton X-100, 20 mM HEPES, pH 7.4, 150 mM NaCl, 5 mm MgCl2, and protease inhibitors and processed. Equal amounts of protein from cleared lysates were incubated for 1 h at 4° C. with glutathione-agarose beads conjugated to GST-Rac1(G15A) nucleotide-free mutant (Cell Biolabs, San Diego. CA) that were preincubated (for 1 h) with vehicle or 8 μm EHop-016 or 0.25 μM Compound 4c. The beads were washed, and the lysates and pull-downs were immunoblotted for Tiam-1, Trio, Ect2, p-REX, or Vav2.
SMILES,GI50 (MCF-7) [µM],GI50 (MDA-MB-435 [1]) [µM],GI50 (MDA-MB-231 [2]) [µM],inhibition at 0.5 µM (MDA-MB-231 [4]) [%],inhibition at […] (MDA-MB-231 [5]) [%],"GI50 (MDA-MB-435 [3]; Homo sapiens, MDA-MB-435) [µM]",effect on viability of MDA-MB-435 (MDA-MB-435 [3]),other results
"CCn1c2ccccc2c2cc(-n3nnc(C(O)c4ccco4)c3-c3ccccc3)ccc21 (centres unmarked) [Compound 4a, (1-(9-ethyl-9H-carbazol-3-yl)-5-phenyl-1H-1,2,3-triazol-4-yl) (furan-2-yl) methanol]",20.6,0.36,17.5,–,–,–,–,"cytotoxicity at 0.5 µM (MDA-MB-435 [3]; Homo sapiens, MDA-MB-435, 500 nM, 72 hours, read-out: decrease in cell viability, MDA-MB-435): ~80%; inhibition at 6.6 µM (MDA-MB-231 [4]; at 6.6 μM, read-out: Inh. of migration): 55 ± 13.6%"
"CCn1c2ccccc2c2cc(-n3nnc(C(O)c4cccs4)c3-c3ccccc3)ccc21 (centres unmarked) [Compound 4d, (1-(9-ethyl-9H-carbazol-3-yl)-5-phenyl-1H-1,2,3-triazol-4-yl) (thiophen-2-yl) methanol]",12,19.6,20.4,8.7,–,–,–,"inhibition at 4.1 µM (MDA-MB-231 [4]; at 4.1 μM, read-out: Inh. of migration): 57.5 ± 10.6%"
"CCn1c2ccccc2c2cc(-n3nnc(C(O)c4ccc(OC)cc4)c3-c3ccccc3)ccc21 (centres unmarked) [Compound 4e, (1-(9-ethyl-9H-carbazol-3-yl)-5-phenyl-1H-1,2,3-triazol-4-yl) (4-methoxyphenyl) methanol]",10.6,32.9,26.2,36.1,–,–,–,"inhibition at 5.3 µM (MDA-MB-231 [4]; at 5.3 μM, read-out: Inh. of migration): 57 ± 12.3%"
"CCn1c2ccccc2c2cc(-n3nnc(C(O)c4ccc([N+](=O)[O-])cc4)c3-c3ccccc3)ccc21 (centres unmarked) [Compound 4f, (1-(9-ethyl-9H-carbazol-3-yl)-5-phenyl-1H-1,2,3-triazol-4-yl) (4-nitrophenyl) methanol]",9.7,7.5,11.2,22.1,–,–,–,"inhibition at 2.2 µM (MDA-MB-231 [4]; at 2.2 μM, read-out: Inh. of migration): 61.1 ± 6.12%"
"CCn1c2ccccc2c2cc(-n3nnc(C(O)c4ccc(C)cc4)c3-c3ccccc3)ccc21 (centres unmarked) [Compound 4g, (1-(9-ethyl-9H-carbazol-3-yl)-5-phenyl-1H-1,2,3-triazol-4-yl) (p-tolyl) methanol]",13.5,2.2,7.9,–,–,–,–,"inhibition at 1.6 µM (MDA-MB-231 [4]; at 1.6 μM, read-out: Inh. of migration): 15.1 ± 10.7%"
"CCn1c2ccccc2c2cc(-n3nnc(C(O)c4ccccc4)c3-c3ccccc3)ccc21 (centres unmarked) [Compound 4h, (1-(9-ethyl-9H-carbazol-3-yl)-5-phenyl-1H-1,2,3-triazol-4-yl) (phenyl) methanol]",9.6,22.6,24.3,11.1,–,–,–,"inhibition at 4.9 µM (MDA-MB-231 [4]; at 4.9 μM, read-out: Inh. of migration): 65.4 ± 11.9%"
"CCn1c2ccccc2c2cc(-n3nnc(C#N)c3-c3ccccc3)ccc21 [Compound 5, 1-(9-ethyl-9H-carbazol-3-yl)-5-phenyl-1H-1,2,3-triazole-4-carbonitrile]",–,–,–,–,46,0.045,–,"cytotoxicity at […] (MDA-MB-231 [5]; 250 nM, 48h, text prints MDA-MB-435 TNBC, read-out: inhibition of cell viability): 50%; cytotoxicity relative to MBQ-167 (MDA-MB-435 [3]; MDA-MB-435, 72 h GI50): ~3 ×; % Rac inhibition (Rac; 10 nM): ~30%; % Rac inhibition (Rac; 50 nM): > 90%; % Rac inhibition (Rac; 100 nM): > 90%"
"CCOC(=O)c1nnn(-c2ccc3c(c2)c2ccccc2n3CC)c1-c1ccccc1 [Compound 6, Ethyl 1-(9-ethyl-9H-carbazol-3-yl)-5-phenyl-1H-1,2,3-triazole-4-carboxylate]",–,–,–,–,32,~5,reduced the viability,–
"CCn1c2ccccc2c2cc(-n3nnc(C(=O)O)c3-c3ccccc3)ccc21 [Compound 7, 1-(9-Ethyl-9H-carbazol-3-yl)-5-phenyl-1H-1,2,3-triazole-4-carboxylic acid]",–,–,–,–,29,–,reduced the viability,–
"CCn1c2ccccc2c2cc(-n3nnc(C(=O)N4CCOCC4)c3-c3ccccc3)ccc21 [Compound 8, (1-(9-ethyl-9H-carbazol-3-yl)-5-phenyl-1H-1,2,3-triazol-4-yl) (morpholino) methanone]",–,–,–,–,-11,~1,did not have an effect,% Rac inhibition (Rac; 250 nM): 250 nM : <20%
"CCn1c2ccccc2c2cc(-n3nnc(C(=O)NCCCN4CCOCC4)c3-c3ccccc3)ccc21 [Compound 9, 1-(9-ethyl-9H-carbazol-3-yl)-N-(3-morpholinopropyl)-5-phenyl-1H-1,2,3-triazole-4-carboxamide]",–,–,–,–,13,> 10,reduced the viability,% Rac inhibition (Rac; 250 nM): 250 nM : <20%
"CCn1c2ccccc2c2cc(-n3nnc(C(=O)c4cccs4)c3-c3ccccc3)ccc21 [Compound 10, (1-(9-Ethyl-9H-carbazol-3-yl)-5-phenyl-1H-[1,2,3]triazol-4-yl)-thiophen-2-yl-methanone]",0.19,23.3,0.915,–,–,–,–,–
"CCn1c2ccccc2c2cc(Nc3ccnc(NCCCN4CCOCC4)n3)ccc21 [EHop-016, reference compound]",–,–,–,–,–,–,–,inhibition of Vav2 binding to Rac1 (Vav2 binding to Rac1): ~80%
